Here are results for one compound from PMC5512161 (Neuropharmacology, 2017).

SMILES strings stand for the structures.

What all share (experiment): whole-cell patch clamp
Format in all cases: cell-based
Background: In patch-clamp work, channel activity is measured electrically.

One assay concerns α6β2γ2 GABAA receptor. As to conditions: EC30 GABA (1 μM), -60 mV, pH 7.3, biphasic effect.
Another assay relates to α3β2γ2 GABAA receptor. Conditions: inhibition of current by EC30 GABA; -60 mV, pH 7.3, 22-25 °C; called competitive.
Assay [1] concerns α1β2 GABAA receptor. As to conditions: EC30 GABA, TM2 6' position, -60 mV, pH 7.3.
In assay [2] the test system is α1β2 GABAA receptor. Conditions: EC30 GABA (0.5 μM), -60 mV, pH 7.3.

The term IC50 denotes the concentration that inhibits the measured activity by half. `O=C1Nc2ccc(Cl)cc2[C@@](C#CC2CC2)(C(F)(F)F)O1` [Efavirenz]: the “% of control end-application current at 30 μM” value amounted to 46 ± 6.1% in the assay on α6β2γ2 GABAA receptor, 95 ± 18% in the assay on α1β2 GABAA receptor [1] and 1.6 ± 1.7% with α1β2 GABAA receptor [2]. Moreover, the IC50 in the assay on α3β2γ2 GABAA receptor turned out to be 14 ± 6.3 µM.
